Measured values reported in ChEMBL document CHEMBL3507680, “University of Dundee, Gates Library screen for HepG2 cell viability”.

Test: Human HepG2 cell viability assay in 384 well format
Assay type: toxicity, cell-based
Parameters: dose 125 nL, time 70.5 hour; cytotoxicity at 70.5 h: concentration not given beside the values
Details: HepG2 cells, read-out: Inhibition

| Compound | cytotoxicity at 70.5 h |
| --- | --- |
| COCCN1CCC(c2nc3c([nH]2)CC(C)(C)CNC3=O)C1 (stereo not given) | 10.3% |
| CCc1cnc(C)nc1NCCN1CCCC(C(N)=O)C1 (stereo not given) | 0.301% |
| CCO[C@H]1C[C@@H](O)C12CCN(C(=O)CC(F)(F)F)CC2 | -7.18% |
| O=C1CC[C@@H](CN(Cc2ccncc2)Cc2nc(CC3CC3)no2)N1 | -5.49% |
| CCN(CCN1CCCCCC1)C(=O)c1cnc(-c2cccnc2)nc1 | -2.81% |
| COc1cccc(-c2n[nH]cc2C(=O)NC(C)CC(=O)O)c1 (stereo not given) | -2.91% |
| CCc1nnc(CN(C)C(=O)CN2CC(c3ccccc3)CC2=O)o1 (stereo not given) | -4.25% |
| O=C1CCN(C(=O)c2csc(-c3ccc(C(F)(F)F)cc3)n2)CCN1 | -8.28% |
| COc1ccccc1CN1C(=O)O[C@@H]2CN(c3ccccn3)C[C@@H]21 | 22.7% |
| Cc1ccc(-c2nc(CN3CCOCC3)no2)cc1N1CCNC1=O | -6.32% |
| CS(=O)(=O)N1C[C@@H]2CC[C@H](C1)N(C(=O)CCc1n[nH]c3c1CCCC3)C2 | 27.3% |
| Cc1cc(S(=O)(=O)N2C[C@H](C3CC3)[C@@H](N)C2)c(C)s1 | -6.03% |
| Cc1[nH]c(=O)[nH]c(=O)c1CN1CCCC(CCc2ccccc2F)C1 (stereo not given) | -5.63% |
| CCCOC(=O)N1CCCC2(CCN(Cc3cccc(C#N)c3)C2)C1 (stereo not given) | -6.05% |
| CC(C)N1CCC(C(=O)N(C)CC(=O)c2ccc(O)cc2)CC1 | -17.5% |
| Cc1cc(CN2CCC3(CC2)CC(C(=O)O)N(C(=O)C2CC2)C3)oc1C (stereo not given) | -13.7% |
| CC(=O)N[C@@H]1CN(C2CCN(c3cccc(C)c3C)CC2)C[C@H]1C(C)C | -5.59% |
| CC(C)CN1CCCC1c1ccc(C(=O)Nc2cccnc2)s1 (stereo not given) | 0.0684% |
| CCN(CC)C(=O)[C@@H]1C[C@@H](N)CN1c1nc(N(C)C)nc(C)c1C | 2.56% |
| Cc1cc(C)c(Cn2cncn2)cc1CN1CCC(CN)C1 (stereo not given) | -0.164% |
| N#Cc1cccc(NC2CC(=O)N(CCc3ccc(F)cc3)C2)n1 (stereo not given) | 28.1% |
| Cc1nsc(NC(=O)NC2CCCOC2)n1 (stereo not given) | 23% |
| Cc1nnc(SCCCNc2cc(C3CC3)ncn2)s1 | 22.4% |
| COc1nc2c(cc1C(=O)NCc1noc(Cc3cccs3)n1)CCC2 | -3.41% |
| CC(c1nncn1C)n1cc(-c2cc(CN3CCCC3)cs2)nn1 (stereo not given) | 15.8% |
| Cc1cccc(C)c1OC1CN(C(=O)C2CCCN(C(=O)N(C)C)C2)C1 (stereo not given) | -9.46% |
| COCc1ncc(CN2CCC(Oc3ccc(OC)cc3)CC2)cn1 | -20.2% |
| O=C(c1ccc(S(=O)(=O)NCC(F)F)cc1)N1C[C@H]2CNC[C@H]2C1 | -1.24% |

| Compound | cytotoxicity at 70.5 h |
| --- | --- |
| COc1ccc(N2CCN(C(=O)[C@@H]3C[C@@H](O)CN3)CC2(C)C)cc1 | 6.62% |
| Cc1cc(C(=O)N2C[C@@H](CN(C)CCN(C)C)[C@@H](CO)C2)nc(C)n1 | 21.1% |
| CC(C)c1nc(CN(C)C(=O)CNC(N)=O)cs1 | -6.72% |
| CCn1c(C)nnc1SCCNC(=O)Cn1cnc2ccccc2c1=O | -4.84% |
| CN(Cc1nc(CC2CC2)no1)CC1Cc2ccccc2O1 (stereo not given) | -6.88% |
| O=C(NCc1cnn2cccnc12)C1CC2(CCNCC2)CN1 (stereo not given) | -4.05% |
| CC(C)n1cnnc1CN(C)C(=O)c1cccnc1O | -4.11% |
| Cn1ccnc1C1CCN(S(=O)(=O)c2ccc3c(c2)OCCO3)CC1 | 9.02% |
| CN(C)c1nc2c(c(N3CCC(O)CC3)n1)CN(CC1CCOC1)CC2 (stereo not given) | -3.69% |
| CCC(Nc1nc(CCN)nc2ccccc12)c1cc(C)ccn1 (stereo not given) | -5.71% |
| Cc1ncccc1Oc1ncnc(N2CCC3(CCCO3)CC2)c1C | -7.69% |
| Cc1nn(C)cc1-c1ccnc(N2CCN(c3ccccc3)C(=O)C2)n1 | -3.19% |
| CN(C)C(C(=O)NCC1(O)CCCCC1)c1cccc(F)c1 (stereo not given) | -2.16% |
| COc1ccc(C(=O)N2C[C@@H](CN3CCCC3)[C@@H](CO)C2)c(C)c1 | -8.12% |
| Cc1noc(C)c1CN(Cc1cccnc1)C1CN2CCC1CC2 (stereo not given) | 25% |
| CN(C)S(=O)(=O)N1CC[C@]2(O)CCN(CCCc3cccnc3)C[C@@H]2C1 | 1.31% |
| COCCN(C)Cc1nc(-c2cccc(F)c2F)oc1C | -11.3% |
| FC(F)C(F)(F)COCc1ncnn1-c1ccc2c(c1)OCO2 | 6.96% |
| CN(C)c1nc2c(c(N3CCCC4(CC3)CNC(=O)O4)n1)CCCC2 (stereo not given) | -1.83% |
| Cn1ccnc1C1CCN(CCC2CCOC2)CC1 (stereo not given) | 14.8% |
| CCCc1nc(C(=O)N2C[C@H](CO)C[C@H](CN3CCOCC3)C2)cs1 | -8.72% |
| C1CCc2nnc(CNc3nc(C4CC4)nc4c3CCNCC4)n2CC1 | -5.38% |
| Cc1cccc(C)c1OC1CN(C(=O)C2CCN(C(=O)N(C)C)CC2)C1 | 29.8% |
| CNC(=O)C1CCN(c2cc(C3CCNCC3)nc(C)n2)C1 (stereo not given) | -19.2% |
| CCN1Cc2nc(OC)c(CNC(=O)C3CCS(=O)(=O)CC3)cc2C1=O | -2.6% |
| Cc1cccc(SC2CCN(C(=O)CCCn3cnnn3)CC2)c1 | -15.1% |
| Cc1ccn(CCNc2ncnc3c2CCN(Cc2ncc[nH]2)CC3)n1 | -8.65% |
